Results: the OligoGym collection
HELM strings list units from the 5' end as sugar, base in round brackets, then linkage (d deoxyribose, r ribose, m 2'-O-methyl, p phosphodiester). Strings are as the collection lists them; they lack the last nucleoside at the 3' end of the tested compound. [moe] = 2'-O-(2-methoxyethyl) (MOE); [sp] = phosphorothioate linkage; [m5C] = 5-methylcytosine

Biological target: ATXN2
Assay: mouse, dose not given
Settings: ASO

Substance	3 h FOB score
RNA1{[moe](T)[sp].[moe](T)p.[moe](T)p.[moe](G)p.[moe]([m5C])p.d(T)[sp].d(T)[sp].d(A)[sp].d(T)[sp].d(T)[sp].d(A)[sp].d(T)[sp].d(T)[sp].d([m5C])[sp].d(T)[sp].[moe]([m5C])p.[moe](A)p.[moe]([m5C])[sp].[moe](A)}$$$$ (last 3' nucleoside missing)	0 score 0-7
RNA1{[moe](A)[sp].[moe]([m5C])p.[moe](A)p.[moe]([m5C])p.[moe](A)p.d(G)[sp].d(T)[sp].d(T)[sp].d(T)[sp].d([m5C])[sp].d(A)[sp].d([m5C])[sp].d(T)[sp].d(A)[sp].d(G)[sp].[moe](G)p.[moe](T)p.[moe](T)[sp].[moe]([m5C])}$$$$ (last 3' nucleoside missing)	0 score 0-7
RNA1{[moe](T)[sp].[moe]([m5C])p.[moe](T)p.[moe](A)p.[moe](T)p.d(T)[sp].d(T)[sp].d([m5C])[sp].d(T)[sp].d(T)[sp].d(T)[sp].d(G)[sp].d(T)[sp].d([m5C])[sp].d([m5C])[sp].[moe](A)p.[moe](G)p.[moe](G)[sp].[moe](A)}$$$$ (last 3' nucleoside missing)	6.5 score 0-7
RNA1{[moe]([m5C])[sp].[moe]([m5C])p.[moe](A)p.[moe](T)p.[moe](A)p.d(A)[sp].d(T)[sp].d([m5C])[sp].d(T)[sp].d([m5C])[sp].d(A)[sp].d(T)[sp].d(T)[sp].d([m5C])[sp].d(T)[sp].[moe]([m5C])p.[moe](A)p.[moe](T)[sp].[moe](A)}$$$$ (last 3' nucleoside missing)	2.25 score 0-7
RNA1{[moe](G)[sp].[moe]([m5C])p.[moe](T)p.[moe](G)p.[moe](T)p.d(G)[sp].d(A)[sp].d(G)[sp].d(T)[sp].d(T)[sp].d([m5C])[sp].d(A)[sp].d([m5C])[sp].d([m5C])[sp].d(T)[sp].[moe](G)p.[moe]([m5C])p.[moe](A)[sp].[moe](T)}$$$$ (last 3' nucleoside missing)	0 score 0-7
RNA1{[moe](A)[sp].[moe](G)p.[moe]([m5C])p.[moe](A)p.[moe](T)p.d(G)[sp].d(A)[sp].d(T)[sp].d([m5C])[sp].d(T)[sp].d(T)[sp].d(G)[sp].d(T)[sp].d(G)[sp].d(T)[sp].[moe](A)p.[moe](T)p.[moe](A)[sp].[moe](T)}$$$$ (last 3' nucleoside missing)	3 score 0-7
RNA1{[moe](G)[sp].[moe](A)p.[moe](A)p.[moe](T)p.[moe]([m5C])p.d(T)[sp].d(T)[sp].d(A)[sp].d(T)[sp].d(T)[sp].d(A)[sp].d(A)[sp].d(G)[sp].d([m5C])[sp].d(A)[sp].[moe](A)p.[moe](G)p.[moe](T)[sp].[moe]([m5C])}$$$$ (last 3' nucleoside missing)	2.5 score 0-7
RNA1{[moe](G)[sp].[moe](T)[sp].[moe](G)[sp].[moe](G)[sp].[moe](G)[sp].d(A)[sp].d(T)[sp].d(A)[sp].d([m5C])[sp].d(A)[sp].d(A)[sp].d(A)[sp].d(T)[sp].d(T)[sp].d([m5C])[sp].[moe](T)[sp].[moe](A)[sp].[moe](G)[sp].[moe](G)}$$$$ (last 3' nucleoside missing)	7 score 0-7
RNA1{[moe]([m5C])[sp].[moe](A)p.[moe]([m5C])p.[moe](A)p.[moe](G)[sp].d(T)[sp].d(T)[sp].d(T)[sp].d([m5C])[sp].d(A)[sp].d([m5C])[sp].d(T)[sp].d(A)[sp].d(G)[sp].d(G)[sp].[moe](T)p.[moe](T)p.[moe]([m5C])[sp].[moe](T)}$$$$ (last 3' nucleoside missing)	4.75 score 0-7
RNA1{[moe](T)[sp].[moe](G)p.[moe](T)p.[moe](A)p.d([m5C])[sp].d(T)[sp].d(T)[sp].d([m5C])[sp].d(A)[sp].d([m5C])[sp].d(A)[sp].d(T)[sp].d(T)[sp].d(T)[sp].[moe](G)p.[moe](G)p.[moe](A)p.[moe](G)[sp].[moe]([m5C])}$$$$ (last 3' nucleoside missing)	1 score 0-7
RNA1{[moe](T)[sp].[moe](T)p.[moe](T)p.[moe](T)p.[moe]([m5C])p.d(T)[sp].d([m5C])[sp].d(A)[sp].d(T)[sp].d(G)[sp].d(T)[sp].d(G)[sp].d([m5C])[sp].d(G)[sp].d(G)[sp].[moe]([m5C])p.[moe](A)p.[moe](T)[sp].[moe]([m5C])}$$$$ (last 3' nucleoside missing)	5 score 0-7
RNA1{[moe](T)[sp].[moe](A)p.[moe](G)p.[moe](A)p.[moe](G)p.d(T)[sp].d(T)[sp].d(T)[sp].d(T)[sp].d(T)[sp].d(G)[sp].d([m5C])[sp].d([m5C])[sp].d(T)[sp].d(T)[sp].[moe]([m5C])p.[moe]([m5C])p.[moe](A)[sp].[moe](T)}$$$$ (last 3' nucleoside missing)	2.5 score 0-7
RNA1{[moe](A)[sp].[moe](A)p.[moe](G)p.[moe](T)p.[moe]([m5C])p.d(T)[sp].d(T)[sp].d(G)[sp].d(T)[sp].d(T)[sp].d([m5C])[sp].d(A)[sp].d(G)[sp].d(T)[sp].d(G)[sp].[moe](T)p.[moe]([m5C])p.[moe]([m5C])[sp].[moe](T)}$$$$ (last 3' nucleoside missing)	4.5 score 0-7
RNA1{[moe](T)[sp].[moe](G)p.[moe](G)p.[moe](T)p.[moe](G)[sp].d(G)[sp].d(T)[sp].d(G)[sp].d(T)[sp].d(G)[sp].d([m5C])[sp].d(G)[sp].d([m5C])[sp].[moe](A)p.[moe](T)p.[moe](G)[sp].[moe](T)}$$$$ (last 3' nucleoside missing)	6.25 score 0-7
RNA1{[moe]([m5C])[sp].[moe](T)[sp].[moe](G)[sp].[moe](G)[sp].[moe](T)[sp].d(A)[sp].d([m5C])[sp].d(A)[sp].d(G)[sp].d(T)[sp].d(T)[sp].d(G)[sp].d([m5C])[sp].d(T)[sp].d(G)[sp].[moe]([m5C])[sp].[moe](T)[sp].[moe](G)[sp].[moe]([m5C])}$$$$ (last 3' nucleoside missing)	7 score 0-7
RNA1{[moe]([m5C])[sp].[moe](T)[sp].[moe]([m5C])[sp].[moe](T)[sp].[moe]([m5C])[sp].d([m5C])[sp].d(A)[sp].d(T)[sp].d(T)[sp].d(A)[sp].d(T)[sp].d(T)[sp].d(T)[sp].d([m5C])[sp].d(T)[sp].[moe](T)[sp].[moe]([m5C])[sp].[moe](A)[sp].[moe]([m5C])}$$$$ (last 3' nucleoside missing)	7 score 0-7
RNA1{[moe]([m5C])[sp].[moe](A)p.[moe](G)p.[moe](T)p.[moe](G)p.d([m5C])[sp].d([m5C])[sp].d(T)[sp].d(T)[sp].d(T)[sp].d(A)[sp].d([m5C])[sp].d([m5C])[sp].d([m5C])[sp].d([m5C])[sp].[moe](T)p.[moe](T)p.[moe](G)[sp].[moe](A)}$$$$ (last 3' nucleoside missing)	5.25 score 0-7
RNA1{[moe](G)[sp].[moe]([m5C])p.[moe](T)p.[moe](G)p.[moe](G)p.d(T)[sp].d(T)[sp].d([m5C])[sp].d([m5C])[sp].d(T)[sp].d(T)[sp].d(A)[sp].d([m5C])[sp].d(A)[sp].d(A)[sp].[moe](T)p.[moe](T)p.[moe](A)[sp].[moe](T)}$$$$ (last 3' nucleoside missing)	0 score 0-7
RNA1{[moe](G)[sp].[moe](T)p.[moe](T)p.[moe](T)p.[moe](G)p.d(G)[sp].d(A)[sp].d(A)[sp].d(T)[sp].d([m5C])[sp].d(T)[sp].d(T)[sp].d(A)[sp].d(T)[sp].d(T)[sp].[moe](A)p.[moe](A)p.[moe](G)[sp].[moe]([m5C])}$$$$ (last 3' nucleoside missing)	1 score 0-7
RNA1{[moe](T)[sp].[moe](G)p.[moe](G)p.[moe](A)p.[moe](T)[sp].d(T)[sp].d([m5C])[sp].d(T)[sp].d(G)[sp].d(T)[sp].d(A)[sp].d([m5C])[sp].d(T)[sp].[moe](T)p.[moe](T)p.[moe](T)[sp].[moe]([m5C])}$$$$ (last 3' nucleoside missing)	5.25 score 0-7
RNA1{[moe]([m5C])[sp].[moe](T)p.[moe](T)p.[moe](G)p.[moe](T)p.d(A)[sp].d([m5C])[sp].d(T)[sp].d(T)[sp].d([m5C])[sp].d(A)[sp].d([m5C])[sp].d(A)[sp].d(T)[sp].d(T)[sp].[moe](T)p.[moe](G)p.[moe](G)[sp].[moe](A)}$$$$ (last 3' nucleoside missing)	2.25 score 0-7
RNA1{[moe](T)[sp].[moe]([m5C])p.[moe](T)p.[moe](G)p.[moe](T)p.[moe](A)p.d([m5C])[sp].d(T)[sp].d(T)[sp].d(T)[sp].d(T)[sp].d([m5C])[sp].d(T)[sp].d([m5C])[sp].d(A)[sp].d(T)[sp].[moe](G)p.[moe](T)[sp].[moe](G)}$$$$ (last 3' nucleoside missing)	1 score 0-7
RNA1{[moe](A)[sp].[moe](T)p.[moe](G)p.[moe]([m5C])p.[moe](A)p.d(A)[sp].d([m5C])[sp].d(T)[sp].d(T)[sp].d(A)[sp].d(A)[sp].d(T)[sp].d(A)[sp].d(A)[sp].d([m5C])[sp].[moe]([m5C])p.[moe](T)p.[moe](T)[sp].[moe](A)}$$$$ (last 3' nucleoside missing)	0.25 score 0-7
RNA1{[moe]([m5C])[sp].[moe]([m5C])p.[moe](G)p.[moe](G)p.[moe](A)p.d(T)[sp].d(T)[sp].d(G)[sp].d(T)[sp].d(T)[sp].d(T)[sp].d(T)[sp].d([m5C])[sp].d(T)[sp].d(T)[sp].[moe]([m5C])p.[moe](A)p.[moe](T)[sp].[moe](T)}$$$$ (last 3' nucleoside missing)	1 score 0-7
RNA1{[moe]([m5C])[sp].[moe]([m5C])p.[moe](A)p.[moe](G)p.[moe](A)p.d(A)[sp].d(A)[sp].d(T)[sp].d([m5C])[sp].d(T)[sp].d(G)[sp].d(T)[sp].d(A)[sp].d(A)[sp].d(A)[sp].[moe](T)p.[moe](T)p.[moe]([m5C])[sp].[moe](T)}$$$$ (last 3' nucleoside missing)	3 score 0-7
RNA1{[moe](T)[sp].[moe](G)p.[moe]([m5C])p.[moe](T)p.[moe](T)p.d(A)[sp].d(T)[sp].d(T)[sp].d(A)[sp].d(T)[sp].d(T)[sp].d([m5C])[sp].d(T)[sp].d([m5C])[sp].d(A)[sp].[moe]([m5C])p.[moe](A)p.[moe](T)[sp].[moe](A)}$$$$ (last 3' nucleoside missing)	0 score 0-7
